# Where two headings read alike, the source gives them in different places.
# Experiments:
# [1] = target: S1P5 (Homo sapiens, UniProt Q9H228); assay: [35S]-GTPγS binding assay, S1P5; format: biochemical; conditions: membranes of CHO cells expressing recombinant S1P receptors; for Emax: control S1P, read-out: S1P5 % Efficacy
# Protocol: (§1) Cell Membrane Preparations
# (§2) CHO cells expressing recombinant S1P receptors were cultured 500 cm^2 culture trays and once confluent, rinsed and detached with cell-lifting buffer (10 mM HEPES, 154 mM NaCl, 6.85 mM EDTA, pH 7.4). Cells were then pelleted by centrifugation, resuspended, and homogenized in membrane preparation buffer (10 mM HEPES and 10 mM EDTA, pH 7.4) using a Polytron PT 1200E homogenizer (Kinematica, Luzern, Switzerland). Cellular proteins were pelleted by centrifugation at 48,000×g at 4° C. for 30 minutes. The resulting supernatant was discarded, and the pellet was re-suspended again in membrane preparation buffer, homogenized for a second time and then centrifuged again as described above. The final cellular protein pellet was suspended in ice cold resuspension buffer (10 mM HEPES and 0.1 mM EDTA, pH 7.4), divided into aliquots, and stored at −80° C. until use.
# (§3) Binding assays for [^35S]-GTPγS were performed in 96-well non-binding surface plates with a final volume of 200 μL. The test compounds were serial diluted in DMSO and added to assay plates using a Tecan D300E digital printer with a total volume of 0.4 μL. The control sphingosine-1-phosphate (S1P) was prepared separately by preparing a 400 μM stock solution from a 100 nmol pellet of S1P in 10 mM Na2CO3 with 2% β-cyclodextrin. The serial dilution of S1P was done using complete assay buffer (20 mM HEPES, 10 mM MgCl2, 100 mM NaCl, 1 mM EDTA, 0.1% fatty acid free bovine serum albumin [BSA], and 30 μg/mL saponin, pH7.4) and transferred to wells already containing 0.4 μL DMSO. All the wells were then loaded to a total volume of 40 μL of complete assay buffer, except the non-specific binding (NSB) wells. For NSB wells, 40 µL/well of 50 μM GTPγS (Sigma Aldrich, cat #G8634, St. Louis, MO) was added to wells containing 0.4 μL of DMSO. The assay was started by the addition of 120 μL/well of CHO—S1P receptor membrane solution containing 40 μg/mL of membrane protein, 16.67 μM guanosine diphosphate (GDP; Sigma Aldrich, cat #G7127, St. Louis, MO), and 2.5 mg/mL of WGA PVT SPA beads in complete buffer. Assay plates were then sealed and incubated at room temperature with gentle agitation for 30 minutes. Next, 40 μL/well of 1 nM of [^35S]-GTPγS (PerkinElmer, cat #NEG030X250UC, Waltham, MA) in basic assay buffer (20 mM HEPES, 10 mM MgCl2, 100 mM NaCl, and 1 mM EDTA, pH7.4) was added to the assay plates to yield a final concentration of […] and the plates were further incubated for 40 minutes at room temperature with gentle agitation. The assay was terminated by centrifugation of the plates at 1000 rpm for 3 minutes using an Eppendorf 5810R centrifuge (Eppendorf, Hamburg, Germany) and G protein bound radioactivity was quantitated using a MicroBeta2 microplate scintillation counter (PerkinElmer, Waltham, MA).
# [2] = target: S1P1 (Homo sapiens, UniProt P21453); assay: [35S]-GTPγS binding assay, S1P1; format: biochemical; conditions: for Emax: control S1P, read-out: S1P1 % Efficacy
# Protocol: as §1, §2, §3
# [3] = membranes of CHO cells expressing recombinant S1P receptors, [35S]-GTPγS binding
# [4] = membranes of CHO cells expressing recombinant S1P receptors, [35S]-GTPγS binding, read-out: S1P1 EC50
# Sequence of S1P1 (P21453 whole entry, species assumed): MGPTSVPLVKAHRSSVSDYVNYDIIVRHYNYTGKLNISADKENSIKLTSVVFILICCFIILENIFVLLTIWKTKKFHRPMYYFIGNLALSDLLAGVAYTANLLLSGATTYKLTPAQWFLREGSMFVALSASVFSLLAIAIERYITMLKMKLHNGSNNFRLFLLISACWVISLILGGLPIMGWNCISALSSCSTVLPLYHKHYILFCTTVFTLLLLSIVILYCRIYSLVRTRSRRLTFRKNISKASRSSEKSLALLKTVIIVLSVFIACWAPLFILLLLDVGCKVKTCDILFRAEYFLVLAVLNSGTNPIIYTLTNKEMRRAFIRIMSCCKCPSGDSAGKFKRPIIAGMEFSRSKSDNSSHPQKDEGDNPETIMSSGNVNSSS
# Sequence of S1P5 (Q9H228 whole entry, species assumed): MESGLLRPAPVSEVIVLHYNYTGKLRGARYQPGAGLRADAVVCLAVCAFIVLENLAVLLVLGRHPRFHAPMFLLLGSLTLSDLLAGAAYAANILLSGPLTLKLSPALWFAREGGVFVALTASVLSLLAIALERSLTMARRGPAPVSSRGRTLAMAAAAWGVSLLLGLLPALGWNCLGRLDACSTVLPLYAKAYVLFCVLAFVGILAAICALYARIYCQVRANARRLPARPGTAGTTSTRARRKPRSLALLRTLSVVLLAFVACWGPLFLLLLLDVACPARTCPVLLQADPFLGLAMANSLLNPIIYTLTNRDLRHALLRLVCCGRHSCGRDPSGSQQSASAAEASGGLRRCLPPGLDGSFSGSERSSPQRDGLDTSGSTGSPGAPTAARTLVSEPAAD
Emax [1] [%],"EC50 [2, 4] [nM]",Structure (SMILES),EC50 [1] [nM],"Emax [2, 3] [%]",EC50 [2] [nM]
58,4,"CC(C)Oc1ccc(-c2nc(-c3cccc4c3CC/C4=N/O)no2)cc1C#N [Compound 10, (Z)-5-(3-(1-(hydroxyimino)-2,3-dihydro-1H-inden-4-yl)-1,2,4-oxadiazol-5-yl)-2-isopropoxybenzonitrile]",6,97,–
–,–,"CC(C)Oc1ccc(-c2nc(-c3cccc4c3CC/C4=N/OCC(=O)O)no2)cc1C#N [Compound 6, (Z)-2-(((4-(5-(3-cyano-4-isopropoxyphenyl)-1,2,4-oxadiazol-3-yl)-2,3-dihydro-1H-inden-1-ylidene)amino)oxy)acetic acid]",> 2000,90,19
64,8,CC(C)Oc1ccc(-c2nc(-c3cccc4c3CC/C4=N/OCCN(C)C)no2)cc1C#N [Compound 8],15,90,–
85,6,"CC(C)Oc1ccc(-c2nc(-c3cccc4c3CC/C4=N/OCCCC(=O)O)no2)cc1C#N [Compound 11, (Z)-4-(((4-(5-(3-cyano-4-isopropoxyphenyl)-1,2,4-oxadiazol-3-yl)-2,3-dihydro-1H-inden-1-ylidene)amino)oxy)butanoic acid]",80,85,–

Structure (SMILES),Emax [1] [%],"EC50 [2, 4] [nM]",EC50 [1] [nM],"Emax [2, 3] [%]",EC50 [2] [nM]
"CC(C)Oc1ccc(-c2nc(-c3cccc4c3CCC4=NOCCC(=O)O)no2)cc1C#N (stereo in doubt) [Compound 7, (E)-3-(((4-(5-(3-cyano-4-isopropoxyphenyl)-1,2,4-oxadiazol-3-yl)-2,3-dihydro-1H-inden-1-ylidene)amino)oxy)propanoic acid]",29,336,30,89,–
"CC(C)Oc1ccc(-c2nc(-c3cccc4c3CC/C4=N/OC(C)(C)C)no2)cc1C#N [Compound 5, (Z)-5-(3-(1-(tert-butoxyimino)-2,3-dihydro-1H-inden-4-yl)-1,2,4-oxadiazol-5-yl)-2-isopropoxybenzonitrile]",79,20,78,98,–
